Data taken from PubChem BioAssay (NCI).
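Each compound was tested at five concentrations against cells in 96-well plates for 48 hours. The concentration for 50% growth inhibition is given as GI50. TGI: total growth inhibition.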

Key:
Assay in all cases: NCI anticancer screen, dose series, 48 h
[1] = test system: 786-0 renal
[2] = test system: A549 NSCLC
[3] = test system: ACHN renal
[4] = test system: BT-549 breast
[5] = test system: CAKI-1 renal
[6] = test system: COLO 205 colon
[7] = test system: DU-145 prostate
[8] = test system: EKVX NSCLC
[9] = test system: HCT-116 colon
[10] = test system: HCT-15 colon
[11] = test system: HL-60(TB) leukemia
[12] = test system: HOP-62 NSCLC
[13] = test system: HOP-92 NSCLC
[14] = test system: HS 578T breast
[15] = test system: IGROV1 ovarian
[16] = test system: K-562 leukemia
[17] = test system: KM12 colon
[18] = test system: LOX IMVI melanoma
[19] = test system: M14 melanoma
[20] = test system: MDA-MB-231 breast
[21] = test system: MDA-MB-435
[22] = test system: MOLT-4 leukemia
[23] = test system: NCI-H226 lung
[24] = test system: NCI-H460 lung
[25] = test system: NCI-H522 lung
[26] = test system: NCI/ADR-RES ovarian
[27] = test system: OVCAR-3 ovarian
[28] = test system: OVCAR-4 ovarian
[29] = test system: OVCAR-5 ovarian
[30] = test system: PC-3 prostate
[31] = test system: RPMI-8226 leukemia
[32] = test system: SF-268 CNS
[33] = test system: SF-295 CNS
[34] = test system: SK-MEL-2 melanoma
[35] = test system: SK-MEL-5 melanoma
[36] = test system: SK-OV-3 ovarian
[37] = test system: SN12C renal
[38] = test system: SNB-19 CNS
[39] = test system: SNB-75 CNS
[40] = test system: SR leukemia
[41] = test system: SW-620 colon
[42] = test system: T-47D breast
[43] = test system: TK-10 renal
[44] = test system: U251 CNS
[45] = test system: UACC-257 melanoma
[46] = test system: UACC-62 melanoma
[47] = test system: UO-31 renal

Work on `CC1=C(C(=O)Nc2ccc(Cl)c(Cl)c2)C(c2ccccc2Cl)NC(=S)N1` (centres undefined) yielded a GI50 [1] of 10.2 µM, a TGI [1] of 20 µM and a GI50 [2] of 24.1 µM. The TGI [2] was > 50 µM, the GI50 [3] was 10.9 µM and the TGI [3] was 25.2 µM. For the same molecule, the GI50 [4] was 39.4 µM, the TGI [4] was > 50 µM and the GI50 [5] was 9.85 µM. For the same molecule, the TGI [5] was 21.5 µM, the GI50 [6] was 8.01 µM and the TGI [6] was 22.2 µM. For the same molecule, the GI50 [7] was 11.9 µM, the TGI [7] was > 50 µM and the GI50 [8] was 9.09 µM. For the same molecule, the TGI [8] was 19 µM, the GI50 [9] was 6.23 µM and the TGI [9] was 12.5 µM. For the same molecule, the GI50 [10] was 7.8 µM, the TGI [10] was 19 µM and the GI50 [11] was 15.4 µM. The TGI [11] was > 50 µM, the GI50 [12] was 12.4 µM and the TGI [12] was 22.7 µM. For the same molecule, the GI50 [13] was 1.15 µM, the TGI [13] was 9.02 µM and the GI50 [14] was 6.38 µM. For the same molecule, the TGI [14] was 13.9 µM, the GI50 [15] was 22.5 µM and the TGI [15] was > 50 µM. For the same molecule, the GI50 [16] was 11 µM, the TGI [16] was > 50 µM and the GI50 [17] was 8.71 µM. For the same molecule, the TGI [17] was 17.6 µM, the GI50 [18] was > 50 µM and the TGI [18] was > 50 µM. For the same molecule, the GI50 [19] was 11.6 µM, the TGI [19] was 26.9 µM and the GI50 [20] was 7.15 µM. The TGI [20] was 17.3 µM, the GI50 [21] was 8.08 µM and the TGI [21] was 16.2 µM. The GI50 [22] was 8.92 µM, the TGI [22] was > 50 µM and the GI50 [23] was 10.1 µM. The TGI [23] was 25.7 µM, the GI50 [24] was 6.58 µM and the TGI [24] was 13.7 µM. For the same molecule, the GI50 [25] was 13.6 µM, the TGI [25] was 24.9 µM and the GI50 [26] was 9.62 µM. It also gave a TGI [26] of 19.7 µM, a GI50 [27] of 10.5 µM and a TGI [27] of 20.6 µM. The GI50 [28] was 23.6 µM, the TGI [28] was > 50 µM and the GI50 [29] was 13.6 µM. The TGI [29] was 41.9 µM, the GI50 [30] was 8.08 µM and the TGI [30] was 23.3 µM. The GI50 [31] was 4.18 µM, the TGI [31] was 24 µM and the GI50 [32] was 5.62 µM. For the same molecule, the TGI [32] was 12.5 µM, the GI50 [33] was 9.46 µM and the TGI [33] was 22 µM. It also gave a GI50 [34] of 14.6 µM, a TGI [34] of 25.2 µM and a GI50 [35] of 7.96 µM. The TGI [35] was 15.1 µM, the GI50 [36] was 12.5 µM and the TGI [36] was > 50 µM. For the same molecule, the GI50 [37] was 8.53 µM, the TGI [37] was 15.8 µM and the GI50 [38] was 0.695 µM. The TGI [38] was 12.8 µM, the GI50 [39] was 5.48 µM and the TGI [39] was 29.2 µM. For the same molecule, the GI50 [40] was 11.7 µM, the TGI [40] was > 50 µM and the GI50 [41] was 10.8 µM. For the same molecule, the TGI [41] was 24.4 µM, the GI50 [42] was 18.9 µM and the TGI [42] was > 50 µM. It also gave a GI50 [43] of 10.1 µM, a TGI [43] of 22.6 µM and a GI50 [44] of 11.9 µM. It also gave a TGI [44] of 26.8 µM, a GI50 [45] of 14.5 µM and a TGI [45] of 26.8 µM. For the same molecule, the GI50 [46] was 8.01 µM, the TGI [46] was 18.9 µM and the GI50 [47] was 8.06 µM. For the same molecule, the TGI [47] was 16.7 µM.
